Measurements taken from patent US6822120B2, “Sulfone liver X-receptor modulators” (Pharmacia Corporation, priority 2002, dated 2004).

SMILES | melting point [°C]
O=S(=O)(Cc1ccc(C(O)(C(F)(F)F)C(F)(F)F)cc1)c1ccccc1Br [Example 5, 2-(4-{[(2-Bromophenyl)sulfonyl]methyl}phenyl)-1,1,1,3,3,3-hexafluoropropan-2-ol] | 124
Cc1ccc(S(=O)(=O)Cc2ccc(C(O)(C(F)(F)F)C(F)(F)F)cc2)cc1 [Example 2, 1,1,1,3,3,3-Hexafluoro-2-(4-{[(4-methylphenyl)sulfonyl]methyl}phenyl)propan-2-ol] | 129
O=S(=O)(c1ccccc1)C(CC(F)(F)F)c1ccc(C(O)(C(F)(F)F)C(F)(F)F)cc1 (stereo not drawn) [Example 16, 1,1,1,3,3,3-Hexafluoro-2-{4-[3,3,3-trifluoro-1-(phenylsulfonyl)propyl]phenyl}propan-2-ol] | 151
CC(c1ccc(C(O)(C(F)(F)F)C(F)(F)F)cc1)S(=O)(=O)c1ccccc1 (stereo not drawn) [Example 8, 1,1,1,3,3,3-Hexafluoro-2-{4-[1-(phenylsulfonyl)ethyl]phenyl}propan-2-ol] | 136
CC(C)(c1ccc(C(O)(C(F)(F)F)C(F)(F)F)cc1)S(=O)(=O)c1ccccc1 [Example 19, 1,1,1,3,3,3-Hexafluoro-2-{4-[1-methyl-1-(phenylsulfonyl)ethyl]phenyl}propan-2-ol] | 185
O=S(=O)(Cc1ccc(C(O)(C(F)(F)F)C(F)(F)F)cc1)c1ccc(Br)cc1 [Example 4, 2-(4-{[(4-Bromophenyl)sulfonyl]methyl}phenyl)-1,1,1,3,3,3-hexafluoropropan-2-ol] | 126
O=S(=O)(Cc1ccc(C(O)(C(F)(F)F)C(F)(F)F)cc1)c1ccc2ccccc2c1 [Example 3, 1,1,1,3,3,3-Hexafluoro-2-{4-[(2-naphthylsulfonyl)methyl]phenyl}propan-2-ol] | 148
O=S(=O)(Cc1ccc(C(O)(C(F)(F)F)C(F)(F)F)cc1)c1cccc(Br)c1 [Example 6, 2-(4-{[(3-Bromophenyl)sulfonyl]methyl}phenyl)-1,1,1,3,3,3-hexafluoropropan-2-ol] | 121
CC(C)(C)C(=O)C(c1ccc(C(O)(C(F)(F)F)C(F)(F)F)cc1)S(=O)(=O)c1ccccc1 (stereo not drawn) [Example 11, 3,3-Dimethyl-1-(phenylsulfonyl)-1-{4-[2,2,2-trifluoro-1-hydroxy-1-(trifluoromethyl) -ethyl]phenyl}butan-2-one] | 172
O=S(=O)(Cc1ccc(C(O)(C(F)(F)F)C(F)(F)F)cc1)c1ccc(Cl)cc1 [Example 7, 2-(4-{[(4-Chlorophenyl)sulfonyl]methyl}phenyl)-1,1,1,3,3,3-hexafluoropropan-2-ol] | 112

Results, then the compound that gave them:

melting point [°C] | SMILES
148 | CCC(c1ccc(C(O)(C(F)(F)F)C(F)(F)F)cc1)S(=O)(=O)c1ccccc1 (stereo not drawn) [Example 15, 1,1,1,3,3,3-Hexafluoro-2-{4-[1-(phenylsulfonyl)propyl]phenyl}propan-2-ol]
159 | Cc1ccc(CC(c2ccc(C(O)(C(F)(F)F)C(F)(F)F)cc2)S(=O)(=O)c2ccccc2)cc1 (stereo not drawn) [Example 17, 1,1,1,3,3,3-Hexafluoro-2-{4-[2-(4-methylphenyl)-1-(phenylsulfonyl)ethyl]phenyl}propan-2-ol]
157 | O=S(=O)(c1ccccc1)C(Cc1ccccc1)c1ccc(C(O)(C(F)(F)F)C(F)(F)F)cc1 (stereo not drawn) [Example 9, 1,1,1,3,3,3-Hexafluoro-2-{4-[2-phenyl-1-(phenylsulfonyl)ethyl]phenyl}propan-2-ol]
148 | C=CCC(c1ccc(C(O)(C(F)(F)F)C(F)(F)F)cc1)S(=O)(=O)c1ccccc1 (stereo not drawn) [Example 14, 1,1,1,3,3,3-Hexafluoro-2-{4-[1-(phenylsulfonyl)but-3-enyl]phenyl}propan-2-ol]
192 | O=S(=O)(c1ccccc1)C(Cc1ccc(-c2ccccc2)cc1)c1ccc(C(O)(C(F)(F)F)C(F)(F)F)cc1 (stereo not drawn) [Example 18, 2-{4-[2-(1,1′-Biphenyl-4-yl)-1-(phenylsulfonyl)ethyl]phenyl}-1,1,1,3,3,3-hexafluoropropan-2-ol]
